Data taken from patent US4008220A, “Penicillins” (Sumitomo Chemical Company, Limited, priority 1972, dated 1977).
≈ marks a conversion by molar mass, not a printed value.

How the values were obtained:
Assay in all cases: Minimal inhibitory concentration by agar dilution method
Assay type in all cases: cell-based
[1] = tested on: Proteus vulgaris HX19
[2] = tested on: Escherichia coli NIHJ
[3] = tested on: Pseudomonas aeruginosa 104
[4] = tested on: Klebsiella pneumoniae 602
[5] = tested on: Staphylococcus aureus 209P
[6] = tested on: Proteus mirabilis GN2425

CCOC(=O)Oc1c(C(=O)N[C@@H](C(=O)N[C@@H]2C(=O)N3[C@@H]2SC(C)(C)[C@@H]3C(=O)O)c2ccccc2)cnc2c1CCC2 [Example 1, D-α-(4-ethoxycarbonyloxy-2,3-cyclopentenopyridine-5-carboxamido)-benzylpenicillin]
MIC [1]: 0.05 µg/mL (≈ 0.0858 µM) | MIC [2]: 12.5 µg/mL (≈ 21.5 µM) | MIC [3]: 6.25 µg/mL (≈ 10.7 µM) | MIC [4]: 6.25 µg/mL (≈ 10.7 µM) | MIC [5]: 0.39 µg/mL (≈ 0.669 µM) | MIC [6]: 3.13 µg/mL (≈ 5.37 µM)

CC1(C)S[C@@H]2[C@H](NC(=O)[C@H](NC(=O)c3cnc4c(c3O)CCC4)c3ccccc3)C(=O)N2[C@H]1C(=O)O [Example 2, D-α-(4-hydroxy-2,3-cyclopentenopyridine-5-carboxamido)-benzylpenicillin]
MIC [1]: 0.39 µg/mL (≈ 0.764 µM) | MIC [2]: 25 µg/mL (≈ 49 µM) | MIC [3]: 12.5 µg/mL (≈ 24.5 µM) | MIC [4]: 12.5 µg/mL (≈ 24.5 µM) | MIC [5]: 0.39 µg/mL (≈ 0.764 µM) | MIC [6]: 12.5 µg/mL (≈ 24.5 µM)

CC1(C)S[C@@H]2[C@H](NC(=O)[C@H](NC(=O)c3cnc4c(c3O)CCCC4)c3ccccc3)C(=O)N2[C@H]1C(=O)O [Example 3, D-α-(4-hydroxy-2,3-cyclohexenopyridine-5-carboxamido)-benzylpenicillin]
MIC [1]: 0.39 µg/mL (≈ 0.743 µM) | MIC [3]: 12.5 µg/mL (≈ 23.8 µM) | MIC [6]: 6.25 µg/mL (≈ 11.9 µM)

CC(=O)c1c(C)ncc(C(=O)N[C@@H](C(=O)N[C@@H]2C(=O)N3[C@@H]2SC(C)(C)[C@@H]3C(=O)O)c2ccccc2)c1O [Example 4, D-α-(3-acetyl-4-hydroxy-2-methyl-pyridine-5-carboxamido)-benzylpenicillin]
MIC [1]: 0.39 µg/mL (≈ 0.741 µM) | MIC [2]: 12.5 µg/mL (≈ 23.7 µM) | MIC [3]: 12.5 µg/mL (≈ 23.7 µM) | MIC [4]: 12.5 µg/mL (≈ 23.7 µM) | MIC [5]: 0.78 µg/mL (≈ 1.48 µM) | MIC [6]: 6.25 µg/mL (≈ 11.9 µM)

CC(C)(C)C(=O)Oc1c(C(=O)N[C@@H](C(=O)N[C@@H]2C(=O)N3[C@@H]2SC(C)(C)[C@@H]3C(=O)O)c2ccccc2)cnc2c1CCCC2 [Example 5, D-α-(2,3-cyclohexeno-4-pivaloyloxypyridine-5-carboxamido)-benzylpenicillin]
MIC [1]: 0.39 µg/mL (≈ 0.641 µM) | MIC [2]: 12.5 µg/mL (≈ 20.5 µM) | MIC [3]: 12.5 µg/mL (≈ 20.5 µM) | MIC [4]: 6.25 µg/mL (≈ 10.3 µM) | MIC [5]: 0.78 µg/mL (≈ 1.28 µM) | MIC [6]: 6.25 µg/mL (≈ 10.3 µM)

CCOC(=O)Oc1c(C(=O)N[C@@H](C(=O)N[C@@H]2C(=O)N3[C@@H]2SC(C)(C)[C@@H]3C(=O)O)c2ccccc2)cnc2c1CCCC2 [Example 6, D-α -(4-ethoxycarbonyloxy-2,3-cyclohexenopyridine-5-carboxamido)-benzylpenicillin]
MIC [1]: 0.39 µg/mL (≈ 0.654 µM) | MIC [2]: 12.5 µg/mL (≈ 20.9 µM) | MIC [3]: 12.5 µg/mL (≈ 20.9 µM) | MIC [4]: 6.25 µg/mL (≈ 10.5 µM) | MIC [5]: 0.78 µg/mL (≈ 1.31 µM) | MIC [6]: 6.25 µg/mL (≈ 10.5 µM)

CC1(C)S[C@@H]2[C@H](NC(=O)[C@H](NC(=O)c3ccnnc3O)c3ccccc3)C(=O)N2[C@H]1C(=O)O [Example 8, D-α-(3-hydroxypyridazine-4-carboxamido)-benzylpenicillin]
MIC [6]: 6.25 µg/mL (≈ 13.3 µM)

CC1(C)S[C@@H]2[C@H](NC(=O)[C@H](NC(=O)c3cnccc3O)c3ccc(O)cc3)C(=O)N2[C@H]1C(=O)O [Example 9, D-α-(4-hydroxypyridine-3-carboxamido)-p-hydroxybenzylpenicillin]
MIC [4]: 100 µg/mL (≈ 206 µM) | MIC [5]: 0.78 µg/mL (≈ 1.6 µM) | MIC [6]: 6.25 µg/mL (≈ 12.8 µM)

CC1(C)S[C@@H]2[C@H](NC(=O)[C@H](NC(=O)c3cccnc3O)c3ccc(O)cc3)C(=O)N2[C@H]1C(=O)O [Example 10, D-α-(2-hydroxypyridine-3-carboxamido)-p-hydroxybenzylpenicillin]
MIC [1]: 0.2 µg/mL (≈ 0.411 µM) | MIC [2]: 12.5 µg/mL (≈ 25.7 µM) | MIC [3]: 6.25 µg/mL (≈ 12.8 µM) | MIC [4]: 100 µg/mL (≈ 206 µM) | MIC [5]: 1.56 µg/mL (≈ 3.21 µM) | MIC [6]: 12.5 µg/mL (≈ 25.7 µM)

CC1(C)S[C@@H]2[C@H](NC(=O)[C@H](NC(=O)c3cnccc3O)C3=CCC=CC3)C(=O)N2[C@H]1C(=O)O [Example 11, D-α-(4-hydroxypyridine-3-carboxamido)-1,4-cyclohexadienylmethylpenicillin]
MIC [1]: 0.2 µg/mL (≈ 0.423 µM) | MIC [2]: 25 µg/mL (≈ 52.9 µM) | MIC [3]: 6.25 µg/mL (≈ 13.2 µM) | MIC [4]: 12.5 µg/mL (≈ 26.5 µM) | MIC [5]: 0.39 µg/mL (≈ 0.825 µM) | MIC [6]: 12.5 µg/mL (≈ 26.5 µM)

CC1(C)S[C@@H]2[C@H](NC(=O)C(NC(=O)c3ccnnc3O)C3=CCC=CC3)C(=O)N2[C@H]1C(=O)O (stereo partly shown) [Example 12]
MIC [1]: 0.05 µg/mL (≈ 0.106 µM) | MIC [2]: 12.5 µg/mL (≈ 26.4 µM) | MIC [3]: 3.13 µg/mL (≈ 6.61 µM) | MIC [4]: 3.13 µg/mL (≈ 6.61 µM) | MIC [5]: 0.2 µg/mL (≈ 0.422 µM) | MIC [6]: 12.5 µg/mL (≈ 26.4 µM)

CC(C)CC(NC(=O)c1ccnnc1O)C(=O)N[C@@H]1C(=O)N2[C@@H]1SC(C)(C)[C@@H]2C(=O)O (stereo partly shown) [Example 13]
MIC [1]: 0.39 µg/mL (≈ 0.864 µM) | MIC [2]: 12.5 µg/mL (≈ 27.7 µM) | MIC [3]: 12.5 µg/mL (≈ 27.7 µM) | MIC [4]: 25 µg/mL (≈ 55.4 µM) | MIC [5]: 0.39 µg/mL (≈ 0.864 µM) | MIC [6]: 25 µg/mL (≈ 55.4 µM)

CC1(C)S[C@@H]2[C@H](NC(=O)C(NC(=O)c3ccnnc3O)c3ccsc3)C(=O)N2[C@H]1C(=O)O (stereo partly shown) [Example 15]
MIC [1]: 0.05 µg/mL (≈ 0.105 µM) | MIC [2]: 12.5 µg/mL (≈ 26.2 µM) | MIC [3]: 3.13 µg/mL (≈ 6.55 µM) | MIC [4]: 12.5 µg/mL (≈ 26.2 µM) | MIC [5]: 0.39 µg/mL (≈ 0.817 µM) | MIC [6]: 6.25 µg/mL (≈ 13.1 µM)

CC1(C)S[C@@H]2[C@H](NC(=O)C(NC(=O)c3cnccc3O)c3cnsc3)C(=O)N2[C@H]1C(=O)O (stereo partly shown) [Example 16]
MIC [1]: 0.2 µg/mL (≈ 0.419 µM) | MIC [2]: 25 µg/mL (≈ 52.4 µM) | MIC [3]: 6.25 µg/mL (≈ 13.1 µM) | MIC [4]: 25 µg/mL (≈ 52.4 µM) | MIC [5]: 0.78 µg/mL (≈ 1.63 µM) | MIC [6]: 12.5 µg/mL (≈ 26.2 µM)

CC1(C)S[C@@H]2[C@H](NC(=O)C(NC(=O)c3cncnc3O)c3ccsc3)C(=O)N2[C@H]1C(=O)O (stereo partly shown) [Example 17]
MIC [1]: 0.05 µg/mL (≈ 0.105 µM) | MIC [2]: 25 µg/mL (≈ 52.4 µM) | MIC [3]: 3.13 µg/mL (≈ 6.55 µM) | MIC [4]: 50 µg/mL (≈ 105 µM) | MIC [5]: 0.39 µg/mL (≈ 0.817 µM) | MIC [6]: 6.25 µg/mL (≈ 13.1 µM)

CC1(C)S[C@@H]2[C@H](NC(=O)C(NC(=O)c3ccnnc3O)c3cccs3)C(=O)N2[C@H]1C(=O)O (stereo partly shown) [Example 18]
MIC [1]: 0.05 µg/mL (≈ 0.105 µM) | MIC [2]: 12.5 µg/mL (≈ 26.2 µM) | MIC [3]: 3.13 µg/mL (≈ 6.55 µM) | MIC [4]: 12.5 µg/mL (≈ 26.2 µM) | MIC [5]: 0.39 µg/mL (≈ 0.817 µM) | MIC [6]: 6.25 µg/mL (≈ 13.1 µM)

CC1(C)S[C@@H]2[C@H](NC(=O)C(NC(=O)c3ccnnc3O)c3cnsc3)C(=O)N2[C@H]1C(=O)O (stereo partly shown) [Example 19]
MIC [1]: 0.05 µg/mL (≈ 0.104 µM) | MIC [2]: 12.5 µg/mL (≈ 26.1 µM) | MIC [3]: 6.25 µg/mL (≈ 13.1 µM) | MIC [4]: 25 µg/mL (≈ 52.2 µM) | MIC [5]: 0.39 µg/mL (≈ 0.815 µM) | MIC [6]: 6.25 µg/mL (≈ 13.1 µM)

CC1(C)S[C@@H]2[C@H](NC(=O)C(NC(=O)c3cnc4c(c3O)CCCCC4)c3ccccc3)C(=O)N2[C@H]1C(=O)O (stereo partly shown) [Example 20]
MIC [1]: 0.78 µg/mL (≈ 1.45 µM) | MIC [2]: 25 µg/mL (≈ 46.4 µM) | MIC [3]: 12.5 µg/mL (≈ 23.2 µM) | MIC [4]: 3.13 µg/mL (≈ 5.81 µM) | MIC [5]: 0.78 µg/mL (≈ 1.45 µM) | MIC [6]: 6.25 µg/mL (≈ 11.6 µM)

CCOC(=O)Oc1c(C(=O)NC(C(=O)N[C@@H]2C(=O)N3[C@@H]2SC(C)(C)[C@@H]3C(=O)O)c2ccccc2)cnc2c1CCCCC2 (stereo partly shown) [Example 21]
MIC [1]: 0.78 µg/mL (≈ 1.28 µM) | MIC [2]: 25 µg/mL (≈ 40.9 µM) | MIC [3]: 25 µg/mL (≈ 40.9 µM) | MIC [4]: 3.13 µg/mL (≈ 5.13 µM) | MIC [5]: 0.78 µg/mL (≈ 1.28 µM) | MIC [6]: 6.25 µg/mL (≈ 10.2 µM)

Cc1ncc(C(=O)NC(C(=O)N[C@@H]2C(=O)N3[C@@H]2SC(C)(C)[C@@H]3C(=O)O)c2ccccc2)c(O)c1C(C)O (stereo partly shown) [Example 22]
MIC [1]: 0.39 µg/mL (≈ 0.738 µM) | MIC [2]: 25 µg/mL (≈ 47.3 µM) | MIC [3]: 6.25 µg/mL (≈ 11.8 µM) | MIC [4]: 12.5 µg/mL (≈ 23.6 µM) | MIC [5]: 0.78 µg/mL (≈ 1.48 µM) | MIC [6]: 12.5 µg/mL (≈ 23.6 µM)

Cc1cc(C(=O)NC(C(=O)N[C@@H]2C(=O)N3[C@@H]2SC(C)(C)[C@@H]3C(=O)O)c2ccccc2)c(O)nn1 (stereo partly shown) [Example 24]
MIC [1]: 0.39 µg/mL (≈ 0.803 µM) | MIC [2]: 12.5 µg/mL (≈ 25.7 µM) | MIC [3]: 3.13 µg/mL (≈ 6.45 µM) | MIC [4]: 25 µg/mL (≈ 51.5 µM) | MIC [5]: 0.39 µg/mL (≈ 0.803 µM) | MIC [6]: 50 µg/mL (≈ 103 µM)

CC1(C)S[C@@H]2[C@H](NC(=O)C(NC(=O)c3cnccc3O)c3ccccc3)C(=O)N2[C@H]1C(=O)O (stereo partly shown) [Example 25]
MIC [1]: 0.2 µg/mL (≈ 0.425 µM) | MIC [3]: 6.23 µg/mL (≈ 13.2 µM) | MIC [4]: 25 µg/mL (≈ 53.1 µM) | MIC [5]: 0.78 µg/mL (≈ 1.66 µM) | MIC [6]: 12.5 µg/mL (≈ 26.6 µM)

CSc1ncc(C(=O)NC(C(=O)N[C@@H]2C(=O)N3[C@@H]2SC(C)(C)[C@@H]3C(=O)O)c2ccccc2)c(O)n1 (stereo partly shown) [Example 27]
MIC [1]: 0.1 µg/mL (≈ 0.193 µM) | MIC [2]: 50 µg/mL (≈ 96.6 µM) | MIC [3]: 6.25 µg/mL (≈ 12.1 µM) | MIC [4]: 50 µg/mL (≈ 96.6 µM) | MIC [5]: 0.78 µg/mL (≈ 1.51 µM) | MIC [6]: 12.5 µg/mL (≈ 24.2 µM)

CC1(C)S[C@@H]2[C@H](NC(=O)C(NC(=O)c3ccccn3)c3ccccc3)C(=O)N2[C@H]1C(=O)O (stereo partly shown) [I, reference compound]
MIC [6]: 50 µg/mL (≈ 110 µM)

CC1(C)S[C@@H]2[C@H](NC(=O)C(NC(=O)c3cccnc3)c3ccccc3)C(=O)N2[C@H]1C(=O)O (stereo partly shown) [II, reference compound]
MIC [1]: 0.78 µg/mL (≈ 1.72 µM) | MIC [2]: 100 µg/mL (≈ 220 µM) | MIC [3]: 50 µg/mL (≈ 110 µM) | MIC [4]: 100 µg/mL (≈ 220 µM) | MIC [5]: 0.78 µg/mL (≈ 1.72 µM) | MIC [6]: 100 µg/mL (≈ 220 µM)
